In patent US20190225989A1, “GENE KNOCKIN METHOD AND KIT FOR GENE KNOCKIN” (Institute of Hematology and Blood Disease Hospital, CAMS & …, priority 2018, published 2019):

B1: RAD51: key factor in the homologous recombination pathway, given as EF1-driven expression plasmid (protein, UniProt Q06609 2-339, looked up)
DNA repair protein RAD51 …: AMQMQLEANADTSVEEESFGPQPISRLEQCGINANDVKKLEEAGFHTVEAVAYAPKKELINIKGISEAKADKILAEAAKLVPMGFTTATEFHQRRSEIIQITTGSKELDKLLQGGIETGSITEMFGEFRTGKTQICHTLAVTCQLPIDRGGGEGKAMYIDTEGTFRPERLLAVAERYGLSGSDVLDNVAYARAFNTDHQTQLLYQASAMMVESRYALLIVDSATALYRTDYSGRGELSARQMHLARFLRMLLRLADEFGVAVVITNQVVAQVDGAAMFAADPKKPIGGNIIAHASTTRLYLRKGRGETRICKIYDSPCLPEAEAMFAINADGVGDAKD
modifications: expressed from EF1 plasmid

Experiments:
Assay type in all cases: cell-based, human
CTNNB1 locus in iPSCs [1] = test: Effects of small molecules and factors on HDR efficiency, FACS; settings: for effect on HDR efficiency at the CTNNB locus: donor pD-mNeonGreen-sg-HA300-300 bp, added first 24 h: RS-1 10 μM, Nu7441 2 μM, SCR7 1 μM, Brefeldin A 0.1 μM, L755507 5 μM
Excerpt: (§1) In this experiment, the verified highly efficient pD-sg-HA300-300 bp double cut donor and multiple small molecules were used to examine the effects on HDR of both the CTNNB1 and PRDM14 loci in iPSCs. Multiple small molecules include RS-1 (a stimulator of human homologous recombination protein RAD51), NU7441 (a DNA-PKcs inhibitor), SCR7 (a DNA ligase IV inhibitor), Brefeldin A, L755507, and
(§2) iPSCs were evenly split into eight wells after nucleofection with Cas9/sgRNA and the relevant double cut donor (pD-mNeonGreen-sg-HA300-300 bp or pD-GFP-sg-HA300-300 bp). DMSO control (0.1%), RS-1 (10 μM), Nu7441 (2 μM), SCR7 (1 μM), Brefeldin A (0.1 μM), L755507 (5 μM), Nocodazole (100 ng/mL), or Nu7441 (2 μM) and SCR7 (1 μM) were added in the wells for the first 24 h and then the medium was changed with fresh medium thereafter. Three days after nucleofection, cells were harvested for FACS analysis to determine the HDR efficiency in each condition.
(§3) The plasmid encoding RAD51, Ad4E1B-Eorf46, or CCND1 was co-transfected with Cas9, sgRNA, and donor plasmid (pD-mNeonGreen-sg-HA300-300 bp or pD-GFP-sg-HA300-300 bp). Three days after transfection, cells were harvested for FACS analysis to determine the HDR efficiency in each condition.
(§4) In this experiment, CCND1 and Nocodazole were used together to examine the effects on HDR of both the CTNNB1 and PRDM14 loci in iPSCs. The plasmid encoding CCND1 was co-transfected with Cas9, sgRNA, and donor plasmid (pD-mNeonGreen-sg-HA300-300 bp or pD-GFP-sg-HA300-300 bp). Nocodazole (100 ng/mL) was added into the medium at 0-24 h after transfection. Three days after incubation, cells were harvested for FACS analysis to determine the HDR efficiency in each condition.

PRDM14 locus in iPSCs [2] = test: as above
Excerpt: as §1, §2, §3, §4

[3] = system: CTNNB1 locus in the H1 ES cells; test: Effects of small molecules on HDR efficiency, FACS; settings: FACS day 3; for effect on HDR efficiency at the CTNNB locus: donor pD-mNeonGreen-sg-HA300-300 bp, added first 24 h: RS-1 10 μM, Nu7441 2 μM, SCR7 1 μM, Brefeldin A 0.1 μM, L755507 5 μM
Procedure: (§5) In this experiment, the H1 ES cells were evenly split into eight wells after nucleofection with Cas9/sgRNA and the relevant double cut donor (pD-mNeonGreen-sg-HA300-300 bp or pD-GFP-sg-HA300-300 bp). DMSO control (0.1%), RS-1 (10 μM), Nu7441 (2 μM), SCR7 (1 μM), Brefeldin A (0.1 μM), L755507 (5 μM), Nocodazole (100 ng/mL), or Nu7441 (2 μM) and SCR7 (1 μM) were added in the wells for the first 24 h and then the medium was changed with fresh medium thereafter. Three days after nucleofection, cells were harvested for FACS analysis to determine the HDR efficiency in each condition.

[4] = system: PRDM14 locus in the H1 ES cells; test: Effects of small molecules on HDR efficiency, FACS; settings: FACS day 3; for effect on HDR efficiency at the PRDM14 locus: donor pD-GFP-sg-HA300-300 bp, added first 24 h: RS-1 10 μM, Nu7441 2 μM, SCR7 1 μM, Brefeldin A 0.1 μM, L755507 5 μM
Procedure: as §5

CTNNB1 locus in iPSCs [5] = test: sgRNA cleavage efficiency at CTNNB1; settings: targets 39 bp before the stop codon, data not shown
PRDM14 locus in iPSCs [6] = test: sgRNA cleavage efficiency at PRDM14; settings: cleavage site 4 bp downstream of the stop codon, data not shown
[7] = Nocodazole 100 ng/mL first 24 h, FACS day 3, vs DMSO, P<0.001
[8] = Nocodazole 100 ng/mL first 24 h
[9] = donor pD-GFP-sg-HA300-300 bp, added first 24 h: RS-1 10 μM, Nu7441 2 μM, SCR7 1 μM, Brefeldin A 0.1 μM, L755507 5 μM, FACS day 3, vs DMSO

Molecule	effect on HDR efficiency at the CTNNB locus (CTNNB1 locus in iPSCs [1]; FACS day 3, vs DMSO)	effect on HDR efficiency at the PRDM14 locus (PRDM14 locus in iPSCs [2]; [9])	effect on HDR efficiency at the CTNNB locus [3]	effect on HDR efficiency at the PRDM14 locus [4]	also measured
COC(=O)Nc1nc2ccc(C(=O)c3cccs3)cc2[nH]1 [Nocodazole]					increase of HDR efficiency at the CTNNB locus (CTNNB1 locus in iPSCs [1]; [7]): ~50%; increase of HDR efficiency at the PRDM14 locus (PRDM14 locus in iPSCs [2]; [7]): ~50%; increase of HDR efficiency at the CTNNB locus [3, 8]: ~50%; increase of HDR efficiency at the PRDM14 locus [4, 8]: ~50%
CCCCCCNC(=O)Nc1ccc(S(=O)(=O)Nc2ccc(CCNC[C@H](O)COc3ccc(O)cc3)cc2)cc1 [L755507]	did not show significant improvement	did not show significant improvement	did not show significant improvement	did not show significant improvement	
O=C(Nc1ccc(Br)cc1)c1ccc(Br)c(S(=O)(=O)NCc2ccccc2)c1 [RS-1]	did not show significant improvement	did not show significant improvement	did not show significant improvement	did not show significant improvement	
sgCTNNB1: sgRNA targeting 39 bp before the CTNNB1 stop codon, GCTGATTGCTGTCACCTGG (SEQ ID NO: 5) (listed as DNA, chemistry not given here)					cleavage efficiency (CTNNB1 locus in iPSCs [5]): 60%
C[C@H]1CCC/C=C/[C@@H]2C[C@H](O)C[C@H]2[C@H](O)/C=C/C(=O)O1 [Brefeldin A]	less pronounced improvement	only at the CTNNB locus	less pronounced improvement	only at the CTNNB locus	
sgPRDM14: sgRNA targeting the sequence surrounding the PRDM14 stop codon, GAAGACTACTAGCCCTGCC (SEQ ID NO: 11) (listed as DNA, chemistry not given here)					cleavage efficiency (PRDM14 locus in iPSCs [6]): ~30%
O=c1cc(N2CCOCC2)oc2c(-c3cccc4c3sc3ccccc34)cccc12 [Nu7441, NU7441]	less pronounced improvement	only at the CTNNB locus	less pronounced improvement	only at the CTNNB locus	
O=c1[nH]c(=S)[nH]c(N=Cc2ccccc2)c1N=Cc1ccccc1 [SCR7]	did not show significant improvement	did not show significant improvement	did not show significant improvement	did not show significant improvement	
B1					effect on HDR efficiency at the CTNNB1 locus (CTNNB1 locus in iPSCs [1]; expression plasmid co-transfected with Cas9, sgRNA and pD-mNeonGreen-sg-HA300-300 bp, FACS day 3, P<0.001): significantly decreased; effect on HDR efficiency at the PRDM14 locus (PRDM14 locus in iPSCs [2]; expression plasmid co-transfected with Cas9, sgRNA and pD-GFP-sg-HA300-300 bp, FACS day 3, P<0.001): significantly decreased
